The test system of one assay is MDA-MB-435 cells. Nature of the assay: Targeted phage vector transduction and peptide inhibition in cell culture. Format: cell-based, human. The conditions noted are these: cells pre-incubated with synthetic peptide. Here is the method: (§1) Targeted phage vector transduction and specific inhibition by using synthetic peptides. MDA-MB-435 breast cancer and KS1767 Karposi's sarcoma cells were cultured on 8-well chamber glass slides. The culture media was replaced by 200 μl of MEM with 2% FCS and 5×10^10 TU of RGD-4C-β-gal, HWGF-β-gal, or fd-β-gal phage vectors (at 10^5 transducing units/cell in each case). Both cell lines express high levels of the integrin and MMP receptors for those targeting peptides. Phage were incubated with cells for 3 hr at 37° C., followed by a medium change to MEM plus 10% FCS. The cells were incubated for 72 hr at 37° C. to allow for β-gal gene expression. […]
(§2) In the cell culture transduction assay, β-gal expression was analyzed by immunofluorescence. For quantification of expression in cell culture, the transduced cells were washed with PBS and permeabilized with 0.2% Triton X-100 for five minutes on ice, followed by blocking with 1% BSA in PBS. […] The degree of β-gal gene expression was determined by counting fluorescent cells in at least ten fields under an inverted microscope (Nikon, Japan). Quantification of the β-gal activity in cell culture was measured as relative light units (RLU) in a luminometer and then normalized to the amount of protein in micrograms, as determined by the Lowry method in a protein assay kit (Bio-Rad Protein Assay®; Hercules, Calif.). […]

The target of assay [1] is vascular endothelial growth factor receptor-1 (VEGFR1) (Homo sapiens, UniProt P17948). Nature of the assay: Ligand-receptor binding assay in vitro with immobilized receptor. The conditions noted are these: recombinant VEGFR1. Here is the method: (§3) Recombinant IL-11Rα vascular endothelial growth factor receptor-1 (VEGFR1) or leptin receptor (OB—R) were incubated with phage displaying the […] (SEQ ID NO:37) peptide. VEGFR1 was used as a representative vascular receptor, while OB—R was used because it shares a co-receptor with IL-11Rα. An unrelated phage clone displaying the peptide […] (SEQ ID NO:38) and insertless fd-tet phage were used as controls. […] Binding of […] (SEQ ID NO:37)-phage to IL-11Rα was specific, since it was inhibited by the native IL-11 ligand in a concentration-dependent manner (not shown). […] These observations with normal prostate tissues were followed by an examination of the expression of IL-11Rα in tumors, as discussed in the present Example.
Chain of vascular endothelial growth factor receptor-1 (VEGFR1) (P17948 27-1338, species assumed): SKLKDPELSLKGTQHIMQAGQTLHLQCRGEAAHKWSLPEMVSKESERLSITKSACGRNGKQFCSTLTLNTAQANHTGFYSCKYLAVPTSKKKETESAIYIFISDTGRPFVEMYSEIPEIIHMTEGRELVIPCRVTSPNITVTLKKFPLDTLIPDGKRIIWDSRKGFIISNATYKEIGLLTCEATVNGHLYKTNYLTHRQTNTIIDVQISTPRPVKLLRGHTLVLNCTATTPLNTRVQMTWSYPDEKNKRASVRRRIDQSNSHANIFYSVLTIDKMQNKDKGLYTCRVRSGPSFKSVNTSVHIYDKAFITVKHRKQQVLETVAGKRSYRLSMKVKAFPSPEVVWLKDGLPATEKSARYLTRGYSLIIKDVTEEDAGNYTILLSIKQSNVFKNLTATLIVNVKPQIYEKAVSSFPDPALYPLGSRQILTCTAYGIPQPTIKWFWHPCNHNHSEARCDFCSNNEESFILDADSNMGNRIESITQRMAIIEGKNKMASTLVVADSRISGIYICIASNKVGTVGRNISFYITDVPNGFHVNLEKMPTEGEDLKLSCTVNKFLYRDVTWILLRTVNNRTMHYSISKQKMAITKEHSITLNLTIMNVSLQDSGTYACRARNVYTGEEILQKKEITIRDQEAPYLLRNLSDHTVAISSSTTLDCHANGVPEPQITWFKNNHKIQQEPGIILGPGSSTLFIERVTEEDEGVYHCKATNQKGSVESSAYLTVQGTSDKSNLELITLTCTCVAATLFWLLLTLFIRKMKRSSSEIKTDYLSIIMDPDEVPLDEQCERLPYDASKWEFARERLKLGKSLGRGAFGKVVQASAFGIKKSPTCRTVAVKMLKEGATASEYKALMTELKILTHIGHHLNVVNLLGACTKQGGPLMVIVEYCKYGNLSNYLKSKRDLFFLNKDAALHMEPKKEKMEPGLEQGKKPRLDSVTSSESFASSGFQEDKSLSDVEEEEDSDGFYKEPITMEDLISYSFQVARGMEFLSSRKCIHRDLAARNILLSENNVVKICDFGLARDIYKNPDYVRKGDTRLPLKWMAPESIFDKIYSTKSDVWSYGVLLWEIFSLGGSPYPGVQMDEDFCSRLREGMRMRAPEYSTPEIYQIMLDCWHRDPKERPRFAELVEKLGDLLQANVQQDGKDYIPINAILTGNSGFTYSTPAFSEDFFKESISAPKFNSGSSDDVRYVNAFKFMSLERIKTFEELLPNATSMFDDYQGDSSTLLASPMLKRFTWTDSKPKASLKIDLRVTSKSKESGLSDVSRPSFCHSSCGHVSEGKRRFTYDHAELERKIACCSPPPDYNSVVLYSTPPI

In the next assay the target is leptin receptor (OB—R) (Homo sapiens, UniProt P48357). Described as above. The conditions noted are these: recombinant OB—R. Here is the method:
as §3

The target in another assay is T1, IL-11Rα (Homo sapiens, UniProt Q14626).
T1 sequence (Q14626 23-422): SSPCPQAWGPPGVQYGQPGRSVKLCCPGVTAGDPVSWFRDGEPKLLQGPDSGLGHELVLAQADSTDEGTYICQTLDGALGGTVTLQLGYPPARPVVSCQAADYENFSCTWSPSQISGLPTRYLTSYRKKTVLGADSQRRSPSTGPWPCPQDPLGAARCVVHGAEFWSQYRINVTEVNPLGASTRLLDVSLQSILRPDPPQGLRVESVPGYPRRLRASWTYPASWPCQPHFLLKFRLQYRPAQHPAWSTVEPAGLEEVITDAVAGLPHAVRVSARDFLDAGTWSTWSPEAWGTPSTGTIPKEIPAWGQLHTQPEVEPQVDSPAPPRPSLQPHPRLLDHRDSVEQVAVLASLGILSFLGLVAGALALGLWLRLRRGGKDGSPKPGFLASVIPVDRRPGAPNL
The assay is described as above. The conditions noted are these: recombinant IL-11Rα. Here is the method:
as §3

The subject of another assay is subcutaneous white fat. Nature of the assay: In vivo phage library screening for fat-homing peptides. Also on record: species or system ob/ob mice. The following applies: mouse. Here is the method:
In vivo phage-display screening of the CX7C library (C, cysteine; X, any amino acid) (Pasqualini et al., 2000; Arap et al., Nature Med. 8:121-127, 2002) for fat-homing peptides was performed (Pasqualini & Rouslahti 1996, Pasqualini et al., 2000). In each biopanning round, an adult ob/ob mouse was injected intravenously (tail vein) with 10^10 transducing units (TU) of the library. Phage (˜300 TU/g in round 1 increased to ˜10^4 TU/g in round 3) were recovered after 5 min of circulation by grinding subcutaneous white fat with a glass Dounce homogenizer, suspending the homogenate in 4° C. Dulbecco's Modified Eagle's medium (DMEM) containing proteinase inhibitors (DMEM-prin: 1 mM PMSF, 20 μg/ml aprotinin, and 1 μg/ml leupeptin) and washing with DMEM-prin. The lipid phase was discarded during the washes and only the solid-phase cellular material was used. Washed homogenates were incubated with host bacteria (log phase E. coli K91kan; OD600˜2). Bacterial cultures were plated onto Luria-Bertani agar plates containing 40 μg/ml tetracycline and 100 μg/ml kanamycin, incubated overnight at 37° C. and selected clones were bulk-amplified and used to precipitate phage for a subsequent round of biopanning. The sub-library amplified after the third round of panning was enriched for fat-specific binders using a subtraction step. […]

The target in a further assay is T2, prohibitin (Mus musculus, UniProt P67778).
T2 construct: from tissue; host or cells: mouse adipose tissue extract
T2 sequence (P67778 2-272): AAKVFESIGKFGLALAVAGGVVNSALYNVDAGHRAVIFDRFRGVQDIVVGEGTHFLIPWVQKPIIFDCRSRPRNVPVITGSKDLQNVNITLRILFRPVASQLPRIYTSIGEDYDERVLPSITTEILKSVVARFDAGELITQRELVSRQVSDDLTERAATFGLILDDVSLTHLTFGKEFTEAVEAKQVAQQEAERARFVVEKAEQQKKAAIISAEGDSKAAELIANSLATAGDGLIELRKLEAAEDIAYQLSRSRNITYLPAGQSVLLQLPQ
Nature of the assay: Adipose receptor identification by binding and immunoprecipitation. As to the method: A band of approximately 35,000 Daltons (35 kDa) was isolated from mouse adipose tissue extract that bound to […] (SEQ ID NO:81) conjugated to (KLAKLAK)2 (SEQ ID NO:1) (not shown). […] The 35 kDa band was analyzed by mass spectrometry, which identified three proteins present in the sample.
The three proteins included predominately a B cell receptor associated protein (prohibitin), apolipoprotein E, and the voltage dependent anion channel (VDAC). Further studies were performed by immunoprecipitation, using either […] (SEQ ID NO:81) or CARAC (SEQ ID NO:71) conjugated to […] (SEQ ID NO:1) and precipitating with commercially available antibodies.

The test system of assay [2] is white fat vasculature. Nature of the assay: Peptide localization in tissues. Type of assay: in vivo, C57BL/6 mice. Here is the method: (§4) Staining of formalin-fixed, paraffin-embedded mouse tissue sections was performed (Pasqualini & Rouslahti, 1996; Pasqualini et al., 2000). For phage-peptide immunolocalization, 10^10 TU of […] (SEQ ID NO:81)-phage or a control insertless phage was injected intravenously. Phage immunohistochemistry was performed using a rabbit anti-fd phage antibody (Sigma Chemicals, St. Louis, Mo.) used at 1:1,000 dilution and a secondary horseradish peroxidase (HRP)-conjugated antibody. Apoptosis was detected using standard TUNEL immunohistochemistry and an HRP-conjugated antibody. For in vivo peptide homing validation, stocks of 5-carboxyfluorescein (FITC)-conjugated […] (SEQ ID NO:81) or CARAC (SEQ ID NO:71) were chemically synthesized, cyclized using the terminal cysteines and HPLC-purified to >90% purity by Anaspec (San Jose, Calif.). Lyophilized peptides were dissolved in DMSO to a concentration of 20 mM. Ten μl of 1 mM peptide-FITC solution in PBS was injected 5 min prior to tissue extraction. For blood vessel localization, 10 μl of 2 mg/ml of rhodamine-conjugated lectin-I (RL-1102, Vector Laboratories, Burlingame, Calif.) was co-injected. All immunohistochemistry and FITC immunofluorescence images were captured using an Olympus IX70 microscope and digital camera setup (Melville, N.Y.).

The subject of assay [3] is white fat vasculature. Nature of the assay: Peptide and phage localization in tissues. Type of assay: in vivo. The conditions noted are these: intravenous, ob/ob mice. As to the method: as §4
The next assay has as its system KS1767 cells. Nature of the assay: Targeted phage vector transduction and peptide inhibition in cell culture. Type of assay: cell-based, human. The following applies: cells pre-incubated with synthetic peptide. Here is the method:
as §1, §2

For assay [4], the system named is bone marrow metastasis from a prostate cancer. Nature of the assay: Immunohistochemical staining inhibition. The following applies: GRP78 staining of bone marrow metastasis. Also on record: species or system human. Here is the method:
Paraffin sections (4 μm) were stained with purified biotinylated antibodies and peptide antibodies by immunoperoxidase detection using the Dako antigen retrieval kit and DAB (diaminobenzidine) as a substrate. All of the sections were counter-stained with hematoxylin. Purified IgGs were coupled to biotin and resolved by SDS-PAGE. The biotinylated immunopurified antibodies were used at a dilution of 1:60. Peptide C antibodies and purified pre-immune antibodies were used at 0.01 μg/μl. For the inhibition staining, peptide C antibodies were pre-incubated for 30 minutes at room temperature with the corresponding GST-peptide C (500 μg) prior to staining. For the GRP78 immunostaining, anti-GRP78 antibody (C-20) was used at 1:350 (Santa Cruz Biotechnology, Santa Cruz, Calif.). Peptide antibodies were generated in rabbits and purified using a T-gel immunoglobulin purification kit and protein G column (Pierce).

For assay [5], the system named is patient's serum antibodies, anti-GRP78 antibody, anti-CNVSDKSC antibodies. Nature of the assay: Cross-inhibition assay. Type of assay: binding, human. The following applies: anti-GRP78 and anti-CNVSDKSC antibodies. As to the method: Microtiter 96-well plates were coated with 10 μg/ml recombinant GRP78 (Stressgen) or GST attached to […] (SEQ ID NO:39) in 100 mM NaHCO3 overnight at 4° C., washed and then blocked with blocking buffer (2% milk, 1% casein, 0.05% Tween-20 in PBS) for 2 hours at 37° C. To determine the inhibitory activities of GRP78 or GST-[…] (SEQ ID NO:39), patient serum (1:50), anti-GRP78 (1:1000), and anti-GST-[…] (1:20) were incubated with GRP78 (50-100 μg) or GST-[…] (SEQ ID NO:39) (100-300 μg). The mixtures were incubated for 1 hour at 37° C. prior to adding to the coated wells. After 1 hour of incubation at room temperature the wells were washed several times with PBST buffer (0.05% Tween-20 in PBS). Secondary antibodies conjugated to horseradish peroxidase were added at 1:5000 dilution, incubated for 30 minutes at room temperature and washed five times with PBST buffer. Finally, the substrate 3,3′,5,5′-Tetramethylbenzidine (TMB; Calbiochem) was added and incubated for 15 minutes at room temperature before stopping the reaction by addition of 0.5M H2SO4. Absorbance at 450 nm was determined in an automated ELISA reader (Bio-Tek).

Bridge positions count the residues as written; N and C are the ends. Ends that are not written are not given here.

Chain of leptin receptor (OB—R) (P48357 22-1165, species assumed): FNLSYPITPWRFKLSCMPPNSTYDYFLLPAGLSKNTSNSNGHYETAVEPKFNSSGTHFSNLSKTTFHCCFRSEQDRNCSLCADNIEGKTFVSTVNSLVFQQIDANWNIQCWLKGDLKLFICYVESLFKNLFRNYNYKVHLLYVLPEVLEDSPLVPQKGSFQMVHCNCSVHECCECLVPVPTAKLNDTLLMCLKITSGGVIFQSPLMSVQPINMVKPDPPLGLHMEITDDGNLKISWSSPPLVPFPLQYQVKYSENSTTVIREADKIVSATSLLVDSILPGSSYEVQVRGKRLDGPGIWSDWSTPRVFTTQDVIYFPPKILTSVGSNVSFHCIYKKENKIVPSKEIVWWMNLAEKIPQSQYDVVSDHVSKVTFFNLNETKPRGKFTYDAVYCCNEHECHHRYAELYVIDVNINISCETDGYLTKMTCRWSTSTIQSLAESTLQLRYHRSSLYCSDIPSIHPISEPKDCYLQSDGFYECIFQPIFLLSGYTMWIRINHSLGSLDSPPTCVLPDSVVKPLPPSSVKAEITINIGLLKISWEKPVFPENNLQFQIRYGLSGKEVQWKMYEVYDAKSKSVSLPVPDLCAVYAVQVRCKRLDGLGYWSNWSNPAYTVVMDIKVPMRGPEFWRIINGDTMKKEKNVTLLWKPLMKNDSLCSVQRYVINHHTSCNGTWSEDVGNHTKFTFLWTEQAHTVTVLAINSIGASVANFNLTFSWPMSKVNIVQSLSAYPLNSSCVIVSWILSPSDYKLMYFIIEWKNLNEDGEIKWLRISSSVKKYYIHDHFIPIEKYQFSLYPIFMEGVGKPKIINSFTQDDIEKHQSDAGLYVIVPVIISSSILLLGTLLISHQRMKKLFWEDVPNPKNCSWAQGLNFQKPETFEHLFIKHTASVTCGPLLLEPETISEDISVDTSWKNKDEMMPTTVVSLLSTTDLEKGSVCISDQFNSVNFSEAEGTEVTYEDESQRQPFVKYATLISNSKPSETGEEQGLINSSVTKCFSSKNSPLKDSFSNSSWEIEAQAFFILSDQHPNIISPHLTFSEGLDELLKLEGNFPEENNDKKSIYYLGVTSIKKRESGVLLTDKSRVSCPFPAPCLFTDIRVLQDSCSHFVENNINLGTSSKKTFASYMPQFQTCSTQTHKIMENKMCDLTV

Regarding CDCRGDCFC (also: cyclized) [RGD-4C], the “inhibition of RGD-4C-β-gal phage transduction” value with MDA-MB-435 cells is recorded as “greater than 99%”.
Take CGRRAGGSC: the results for the “phage binding to immobilized receptor” value (in assay [1]; at leptin receptor (OB—R); at IL-11Rα) were “Neither OB—R nor VEGFR1 showed binding”, “Neither OB—R nor VEGFR1 showed binding” and “significant amount of binding”, respectively.
As for CKGGRAKDC, the “share of all clones identified in the screen” value in the assay with subcutaneous white fat was determined as 4.5%. For the same substance, the receptor identified entry with prohibitin (adipose tissue endothelial receptor) is reported as “prohibitin”. For the same substance, in the assay with prohibitin (compared to the CARAC precipitated fraction), the “enrichment of prohibitin in precipitated fraction” value is listed as “over a ten-fold enrichment”.
In the case of “CKGGRAKDC-FITC: 5-carboxyfluorescein (FITC)-conjugated cyclized CKGGRAKDC (disulfide 1-9 (inferred); also: FITC conjugate, site not given here)”, the “localization to white fat vasculature” value in the assay with white fat vasculature [2] (intravenous, C57BL/6 (leptin +/+) mice) is “specifically localized to blood vessels of subcutaneous and peritoneal white fat”; in the assay on white fat vasculature [3], “localized to and was internalized by cells of white adipose vasculature”. Moreover, the “co-localization with lectin-rhodamine in control tissue” value in the assay with white fat vasculature [2] (pancreatic tissue) is reported as “No such co-localization was observed”.
Take CTTHWGFTLC (disulfide 1-10 (inferred)): in the assay on KS1767 cells, the “inhibition of HWGF-β-gal phage transduction” value is “greater than 90%”.
Turning to “GRP78: recombinant 78 kDa glucose regulated protein (Stressgen)”, the inhibition of immunostaining entry in assay [4] was “staining was inhibited”. For the same substance, the “blocking of antibody binding” value in [5] is reported as “capable of blocking binding”.
